Test results: the supplement of paper PMC10307832

Tests used:
Assay in all cases: relative viability (nuclei count vs DMSO), 5 days (fraction); higher = more cells survive
HCC-15 = test system: HCC-15
How it was run: (§1)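 Values are medians from duplicate plates. Each reflects relative viability, defined as the nuclei count of treated wells over that of vehicle wells. Lung cancer cell lines in 1536-well plates were pin-tool dosed one day after seeding with one drug alone or with a fixed anchor-drug dose plus five library-drug doses (not always all listed) in √10 steps, then fixed, stained and imaged at 4× after 5 days.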

HARA = test system: HARA
How it was run: as §1

NCI-H1755 = test system: NCI-H1755
How it was run: as §1

COR-L23 = test system: COR-L23
How it was run: as §1

NCI-H1793 = test system: NCI-H1793
How it was run: as §1

NCI-H2009 = test system: NCI-H2009
How it was run: as §1

NCI-H1993 = test system: NCI-H1993
How it was run: as §1

NCI-H2347 = test system: NCI-H2347
How it was run: as §1

NCI-H1734 = test system: NCI-H1734
How it was run: as §1

NCI-H522 = test system: NCI-H522
How it was run: as §1

NCI-H358 = test system: NCI-H358
How it was run: as §1

NCI-H2228 = test system: NCI-H2228
How it was run: as §1

HOP-62 = test system: HOP-62
How it was run: as §1

NCI-H1792 = test system: NCI-H1792
How it was run: as §1

NCI-H838 = test system: NCI-H838
How it was run: as §1

SK-MES-1 = test system: SK-MES-1
How it was run: as §1

UMC-11 = test system: UMC-11
How it was run: as §1

NCI-H1395 = test system: NCI-H1395
How it was run: as §1

NCI-H1355 = test system: NCI-H1355
How it was run: as §1

NCI-H2170 = test system: NCI-H2170
How it was run: as §1

NCI-H647 = test system: NCI-H647
How it was run: as §1

COR-L 105 = test system: COR-L 105
How it was run: as §1

O=c1cc(-c2cccc3c2Sc2ccccc2S3)oc(N2CCOCC2)c1 + O=C(c1cc(Cc2n[nH]c(=O)c3ccccc23)ccc1F)N1CCN(C(=O)C2CC2)CC1 [Olaparib] (partner 8 µM)
relative viability (HCC-15; first compound 0.08 µM): 0.756
relative viability (HCC-15; first compound 0.253 µM): 0.772
relative viability (HCC-15; first compound 0.8 µM): 0.707
relative viability (HCC-15; first compound 2.53 µM): 0.654
relative viability (HCC-15; first compound 8 µM): 0.485
relative viability (HARA; first compound 0.08 µM): 1.13
relative viability (HARA; first compound 0.253 µM): 0.711
relative viability (HARA; first compound 0.8 µM): 0.774
relative viability (HARA; first compound 2.53 µM): 0.629
relative viability (HARA; first compound 8 µM): 0.777
relative viability (NCI-H1755; first compound 0.08 µM): 0.843
relative viability (NCI-H1755; first compound 0.253 µM): 0.998
relative viability (NCI-H1755; first compound 0.8 µM): 0.846
relative viability (NCI-H1755; first compound 2.53 µM): 0.884
relative viability (NCI-H1755; first compound 8 µM): 0.91
relative viability (COR-L23; first compound 0.08 µM): 0.35
relative viability (COR-L23; first compound 0.253 µM): 0.395
relative viability (COR-L23; first compound 0.8 µM): 0.351
relative viability (COR-L23; first compound 2.53 µM): 0.362
relative viability (COR-L23; first compound 8 µM): 0.351
relative viability (NCI-H1793; first compound 0.08 µM): 0.815
relative viability (NCI-H1793; first compound 0.253 µM): 1.08
relative viability (NCI-H1793; first compound 0.8 µM): 0.899
relative viability (NCI-H1793; first compound 2.53 µM): 0.721
relative viability (NCI-H1793; first compound 8 µM): 0.63
relative viability (NCI-H2009; first compound 0.08 µM): 0.746
relative viability (NCI-H2009; first compound 0.253 µM): 0.731
relative viability (NCI-H2009; first compound 0.8 µM): 0.798
relative viability (NCI-H2009; first compound 2.53 µM): 0.662
relative viability (NCI-H2009; first compound 8 µM): 0.765
relative viability (NCI-H1993; first compound 0.08 µM): 1.05
relative viability (NCI-H1993; first compound 0.253 µM): 1.1
relative viability (NCI-H1993; first compound 0.8 µM): 0.986
relative viability (NCI-H1993; first compound 2.53 µM): 0.965
relative viability (NCI-H1993; first compound 8 µM): 1.12
relative viability (NCI-H2347; first compound 0.08 µM): 0.53
relative viability (NCI-H2347; first compound 0.253 µM): 0.561
relative viability (NCI-H2347; first compound 0.8 µM): 0.591
relative viability (NCI-H2347; first compound 2.53 µM): 0.585
relative viability (NCI-H2347; first compound 8 µM): 0.638
relative viability (NCI-H1734; first compound 0.08 µM): 0.628
relative viability (NCI-H1734; first compound 0.253 µM): 0.659
relative viability (NCI-H1734; first compound 0.8 µM): 0.713
relative viability (NCI-H1734; first compound 8 µM): 0.647
relative viability (NCI-H522; first compound 0.08 µM): 0.615
relative viability (NCI-H522; first compound 0.253 µM): 0.621
relative viability (NCI-H522; first compound 0.8 µM): 0.612
relative viability (NCI-H522; first compound 2.53 µM): 0.723
relative viability (NCI-H522; first compound 8 µM): 0.576
relative viability (NCI-H358; first compound 0.08 µM): 0.636
relative viability (NCI-H358; first compound 0.253 µM): 0.676
relative viability (NCI-H358; first compound 0.8 µM): 0.589
relative viability (NCI-H358; first compound 2.53 µM): 0.64
relative viability (NCI-H358; first compound 8 µM): 0.719
relative viability (NCI-H2228; first compound 0.08 µM): 0.691
relative viability (NCI-H2228; first compound 0.253 µM): 0.869
relative viability (NCI-H2228; first compound 0.8 µM): 0.799
relative viability (NCI-H2228; first compound 2.53 µM): 0.83
relative viability (NCI-H2228; first compound 8 µM): 0.733
relative viability (HOP-62; first compound 0.08 µM): 0.374
relative viability (HOP-62; first compound 0.253 µM): 0.52
relative viability (HOP-62; first compound 0.8 µM): 0.543
relative viability (HOP-62; first compound 2.53 µM): 0.49
relative viability (HOP-62; first compound 8 µM): 0.576
relative viability (NCI-H1792; first compound 0.08 µM): 0.384
relative viability (NCI-H1792; first compound 0.253 µM): 0.352
relative viability (NCI-H1792; first compound 0.8 µM): 0.341
relative viability (NCI-H1792; first compound 2.53 µM): 0.321
relative viability (NCI-H1792; first compound 8 µM): 0.286
relative viability (NCI-H838; first compound 0.08 µM): 0.9
relative viability (NCI-H838; first compound 0.253 µM): 1.1
relative viability (NCI-H838; first compound 0.8 µM): 0.752
relative viability (NCI-H838; first compound 2.53 µM): 0.715
relative viability (NCI-H838; first compound 8 µM): 0.546
relative viability (SK-MES-1; first compound 0.08 µM): 0.756
relative viability (SK-MES-1; first compound 0.253 µM): 0.892
relative viability (SK-MES-1; first compound 0.8 µM): 0.708
relative viability (SK-MES-1; first compound 2.53 µM): 0.705
relative viability (SK-MES-1; first compound 8 µM): 0.467
relative viability (UMC-11; first compound 0.08 µM): 0.365
relative viability (UMC-11; first compound 0.253 µM): 0.74
relative viability (UMC-11; first compound 0.8 µM): 0.325
relative viability (UMC-11; first compound 2.53 µM): 0.344
relative viability (UMC-11; first compound 8 µM): 0.42
relative viability (NCI-H1395; first compound 0.08 µM): 0.404
relative viability (NCI-H1395; first compound 0.253 µM): 0.416
relative viability (NCI-H1395; first compound 0.8 µM): 0.513
relative viability (NCI-H1395; first compound 2.53 µM): 0.471
relative viability (NCI-H1395; first compound 8 µM): 0.47
relative viability (NCI-H1355; first compound 0.08 µM): 0.801
relative viability (NCI-H1355; first compound 0.253 µM): 0.916
relative viability (NCI-H1355; first compound 0.8 µM): 0.65
relative viability (NCI-H1355; first compound 2.53 µM): 0.717
relative viability (NCI-H1355; first compound 8 µM): 0.573
relative viability (NCI-H2170; first compound 0.08 µM): 0.585
relative viability (NCI-H2170; first compound 0.253 µM): 0.699
relative viability (NCI-H2170; first compound 0.8 µM): 0.689
relative viability (NCI-H2170; first compound 2.53 µM): 0.641
relative viability (NCI-H2170; first compound 8 µM): 0.617
relative viability (NCI-H647; first compound 0.08 µM): 0.642
relative viability (NCI-H647; first compound 0.253 µM): 0.851
relative viability (NCI-H647; first compound 0.8 µM): 0.596
relative viability (NCI-H647; first compound 2.53 µM): 0.452
relative viability (NCI-H647; first compound 8 µM): 0.272
relative viability (COR-L 105; first compound 0.08 µM): 0.546
relative viability (COR-L 105; first compound 0.253 µM): 0.665
relative viability (COR-L 105; first compound 0.8 µM): 0.468
relative viability (COR-L 105; first compound 2.53 µM): 0.682
relative viability (COR-L 105; first compound 8 µM): 0.78
